Results taken from patent US20160122305A1, “Topical Compositions and Methods of Use Thereof” (Avon Products, Inc., priority 2014, published 2016).
pEC50: −log10 of the molar value. Like-named read-outs stand apart in the source and are kept apart here.

Tests used:
β2 adrenergic receptor = β2 adrenergic receptor (Homo sapiens, UniProt P07550); experiment: SelectScreen cell-based GPCR profiling, β2 agonist assay; conditions: 5 hours incubation, fluorescence read
Description: (§1) The Compounds of Formulas (III)-(V) were subjected to an in vitro screening against α1A, α2A, and β2 adrenergic receptors using SelectScreen® Cell-based GPCR Profiling Service from Life Technologies. In each of the three agonist assays (α1A, α2A, and β2), cells were thawed and resuspended in Assay Media (DMEM, 10% dialyzed FBS, 25 mM HEPES pH 7.3, 0.1 mM NEAA, 100 U/mL/100 μg/mL Pen/Strep) to a concentration of 312,500 cells/mL. 32 μL of cell suspension (10,000 cells) were added to each well of a 384-well TC-Treated assay plate. Cells in Assay Media were incubated for 16-24 hours in the plate at 37° C./5% CO2 in a humidified incubator. 4 μL of a 10× serial dilution of a control agonist (phenylephrine for α1A; UK 14304 for α2A; isoproterenol for β2) or a Compound III-V were added to appropriate wells of the plate. 4 μL of Assay Media was added to all wells to bring the final assay volume to 40 μL. The plate was incubated for 5 hours at 37° C./5% CO2 in a humidified incubator. 8 μL of 1 μM Substrate+Loading Solution was added to each well and the plate was incubated for 2 hours at room temperature. The plate was read on a fluorescence plate reader.

α1A adrenergic receptor = target: T1, α1A adrenergic receptor (Homo sapiens, UniProt P35348); experiment: SelectScreen cell-based GPCR profiling, α1A agonist assay; conditions: for selectivity of agonism (α1A and/or α2A EC50 less than 1,000 nM and insignificant activity at β2): classification in words from Table 1 EC50 values, insignificant β2 activity = EC50 greater than about 500 nM
T1 sequence (P35348 1-466): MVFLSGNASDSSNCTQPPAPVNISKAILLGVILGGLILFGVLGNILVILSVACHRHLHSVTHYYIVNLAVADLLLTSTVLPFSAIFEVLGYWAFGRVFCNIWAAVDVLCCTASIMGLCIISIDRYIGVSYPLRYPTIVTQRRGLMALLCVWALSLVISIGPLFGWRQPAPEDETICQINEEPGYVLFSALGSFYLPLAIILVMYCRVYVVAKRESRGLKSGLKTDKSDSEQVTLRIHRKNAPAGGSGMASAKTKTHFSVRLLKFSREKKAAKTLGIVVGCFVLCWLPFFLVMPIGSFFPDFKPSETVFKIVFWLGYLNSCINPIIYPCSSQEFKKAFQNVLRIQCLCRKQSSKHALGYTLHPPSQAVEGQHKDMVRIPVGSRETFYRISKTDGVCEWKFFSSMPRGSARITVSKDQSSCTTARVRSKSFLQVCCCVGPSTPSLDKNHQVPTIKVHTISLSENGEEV
Description: 32 μL of cell suspension (10,000 cells) were added to each well of a 384-well TC-Treated assay plate. Cells in Assay Media were incubated for 16-24 hours in the plate at 37° C./5% CO2 in a humidified incubator. […] 4 μL of Assay Media was added to all wells to bring the final assay volume to 40 μL. The plate was incubated for 5 hours at 37° C./5% CO2 in a humidified incubator. 8 μL of 1 μM Substrate+Loading Solution was added to each well and the plate was incubated for 2 hours at room temperature. The plate was read on a fluorescence plate reader.

α2A adrenergic receptor = target: T2, α2A adrenergic receptor (Homo sapiens, UniProt P08913); experiment: SelectScreen cell-based GPCR profiling, α2A agonist assay; conditions: 5 hours incubation, fluorescence read
T2 sequence (P08913 1-465): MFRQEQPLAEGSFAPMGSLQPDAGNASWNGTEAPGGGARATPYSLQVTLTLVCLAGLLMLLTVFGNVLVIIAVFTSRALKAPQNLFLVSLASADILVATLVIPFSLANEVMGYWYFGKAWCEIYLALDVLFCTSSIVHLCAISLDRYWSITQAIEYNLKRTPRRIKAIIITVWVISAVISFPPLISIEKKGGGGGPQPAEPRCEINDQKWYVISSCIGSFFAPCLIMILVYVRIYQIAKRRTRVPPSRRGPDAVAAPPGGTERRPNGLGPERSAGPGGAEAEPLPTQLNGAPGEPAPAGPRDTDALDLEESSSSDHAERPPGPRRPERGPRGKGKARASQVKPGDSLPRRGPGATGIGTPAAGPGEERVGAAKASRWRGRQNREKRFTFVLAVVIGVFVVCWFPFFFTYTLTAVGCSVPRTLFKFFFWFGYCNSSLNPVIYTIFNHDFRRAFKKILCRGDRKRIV
Description: as §1

[1] = agonist assay, 5 hours incubation, fluorescence read, read-out: α1A Activity, EC50

Sequence of β2 adrenergic receptor (P07550 whole entry): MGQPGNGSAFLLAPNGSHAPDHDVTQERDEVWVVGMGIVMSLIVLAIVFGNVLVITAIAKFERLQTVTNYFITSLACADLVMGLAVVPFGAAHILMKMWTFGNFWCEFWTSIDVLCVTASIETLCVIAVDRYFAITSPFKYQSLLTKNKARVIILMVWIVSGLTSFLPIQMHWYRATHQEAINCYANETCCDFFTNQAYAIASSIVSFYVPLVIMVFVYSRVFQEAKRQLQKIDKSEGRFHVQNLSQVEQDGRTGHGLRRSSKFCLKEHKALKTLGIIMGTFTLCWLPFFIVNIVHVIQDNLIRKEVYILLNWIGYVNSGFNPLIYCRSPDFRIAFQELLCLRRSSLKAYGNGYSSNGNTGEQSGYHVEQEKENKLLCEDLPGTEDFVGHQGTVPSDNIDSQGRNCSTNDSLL

| pEC50 (β2 adrenergic receptor) | pEC50 (α2A adrenergic receptor) | pEC50 (α1A adrenergic receptor; [1]) | selectivity of agonism (α1A and/or α2A EC50 less than 1,000 nM and insignificant activity at β2) (α1A adrenergic receptor) | Structure (SMILES) | pEC50 (α1A adrenergic receptor) |
| --- | --- | --- | --- | --- | --- |
| < 4.60 | < 4.60 | 7.89 | selective α1A receptor agonist | CC(Oc1ccccc1-c1cccnc1)C1=NCCN1 (centres unmarked) [IV] | – |
| < 4.20 | 6.56 | 7.49 | selective α1A and α2A receptor agonist | CC(Oc1ccccc1/C=N/O)C1=NCCN1 (centres unmarked) [V] | – |

| Structure (SMILES) | pEC50 (β2 adrenergic receptor) | pEC50 (α2A adrenergic receptor) | pEC50 (α1A adrenergic receptor; [1]) | selectivity of agonism (α1A and/or α2A EC50 less than 1,000 nM and insignificant activity at β2) (α1A adrenergic receptor) | pEC50 (α1A adrenergic receptor) |
| --- | --- | --- | --- | --- | --- |
| CC(Oc1ccccc1C1CCCC1)C1=NCCN1 (centres unmarked) [Compound III] | < 5.20 | 7.73 | – | – | > 9.92 |
